Experiments:
BR5015 xenografts = assay: TNBC patient-derived xenograft BR5015, tumor volume; assay type: in vivo, mouse; details: 40 mg/kg or 30 mg/kg i.v. BIW
Method: (§1) Patient-derived xenograft (PDX) models from TNBC patients (BR5010, BR5013, BR5015, and BR5023) were established in NOD-SCID mice at Crown Bioscience (San Diego, USA). Cryo vials containing tumor cells were thawed and prepared for injection into mice. Cells were washed in PBS, counted, and resuspended in cold PBS at a concentration of 50,000-100,000 viable cells/100 ul. Cell suspensions were mixed with an equal volume of Cultrex ECM and kept on ice during transport to the vivarium. Cells were prepared for injections by withdrawing ECM-Cell mixture into a chilled slip-tip syringe fitted with a 26G 7/8 (0.5 mm×22 mm) needle. The filled syringes were kept on ice to avoid the solidification of ECM. Each mouse was inoculated subcutaneously in the right flank with 200 uL of the cell suspension. Tumor sizes were measured in two dimensions using a caliper, and the volumes were expressed in mm^3 using the formula: V=0.5 a×b^2, where a and b are the longest and shortest diameters of the tumor, respectively. Compound 1 treatment was started when the average tumor size reached 150-200 mm^3.
(§2) Compound 1 was formulated in w/v 20% Captisol (pH 4-6) and administered by i.v. twice weekly (BIW) at a final dose of 40 mg/kg or 30 mg/kg in a 10 ml/kg volume. Tumor volumes were measured twice weekly over the course of the study. […]

[1] = system: ovarian carcinoma PDX models (OV5387, OV14702, OV14972, OV15398, OV15576, OV15696, OV15612, OV15631); assay: Ovarian carcinoma patient-derived xenografts (eight models), tumor volume; assay type: in vivo, mouse; details: 40 mg/kg or 30 mg/kg i.v. BIW; four did not respond
Method: as §1, with “from ovarian carcinoma” for “from TNBC”, “patients (OV5387, OV14702, OV14972, OV15398, OV15576, OV15696, OV15612, OV15631)” for “patients (BR5010, BR5013, BR5015, and BR5023)”, “in mm3” for “in mm^3”, “V=0.5 a×b^2” for “V=0.5 a×b^2,”
as §2

OV15612 xenograft = assay: Ovarian PDX OV15612, tumor volume; assay type: in vivo, mouse; details: OV15612 (FGFR1 super enhancer, CCNE1 high); 40 or 30 mg/kg i.v. BIW
Method: as §1, with “from ovarian carcinoma” for “from TNBC”, “patients (OV5387, OV14702, OV14972, OV15398, OV15576, OV15696, OV15612, OV15631)” for “patients (BR5010, BR5013, BR5015, and BR5023)”, “in mm3” for “in mm^3”, “V=0.5 a×b^2” for “V=0.5 a×b^2,”
as §2

[2] = system: homologous recombination deficiency / carboplatin sensitivity genes in TOV21G cells; assay: Nanostring PanCancer Pathways mRNA, TOV21G; assay type: cell-based; details: 50 nM, 16 hours
Method: Ovarian Cell lines OvCar3, TOV21G, A2780 and COV318 were plated at 500,000 cells/well in a 6-well plate the day before treatment. The next day the cells were treated with vehicle or 50 nM Compound 1 for 0, 6, or 16 hours after which cells were harvested and total RNA collected using RNeasy mini kit (Qiagen). Changes in mRNA between samples were analyzed with Nanostring™ PanCancer Pathways Panels specifically analyzing genes related to homologous recombination deficiency and carboplatin sensitivity (ie. BRCA1, BRCA2, Rad51, ATM, ATR, MSH2, MSH6). Nanostring signal intensities were first normalized to housekeeping genes across all cell lines, and then normalized to the 0 hour timepoint within a cell line.

[3] = system: Rad51, CHEK1 and CHEK2 mRNA in MDA-MB-468, MDA-MB-231, Ca1120 and MDA-MB-453; assay: Quantitative PCR of DNA damage repair genes, breast cancer cell lines; assay type: cell-based; details: 50 nM, 6 hrs
Method: Breast cancer cell lines MDA-MB-468, MDA-MB-231, Ca1120 and MDA-MB-453 were plated at 200,000 cells/well in a 6-well plate the day before treatment. The next day the cells were treated with vehicle, 50 nM Compound 1 or 50 nM Paclitaxel for 6 hrs, after which cells were harvested and total RNA collected using RNeasy mini kit (Qiagen). Total RNA (500 ng) was reverse transcribed using Quantitect Reverse Transcription kit (Qiagen). Quantitative PCR for each of Rad51, CHEK1 and CHEK2 was performed on QuantStudio 6 Flex (Applied Biosystems) using Power SYBR green PCR master mix (Thermo Fisher Scientific) and primers specific for each of those genes. The change in gene expression, relative to housekeeping gene RPL27, was quantified using DDCt method.

leukemic cells = details: leukemic vs non-malignant cells; previously shown; cited from earlier work

CN(C)C/C=C/C(=O)Nc1ccc(C(=O)N[C@@]2(C)CCC[C@@H](Nc3ncc(Cl)c(-c4c[nH]c5ccccc45)n3)C2)nc1 [Compound 1, N-((1S,3R)-3-(5-chloro-4-(1H-indol-3-yl)pyrimidin-2-ylamino)-1-methylcyclohexyl)-5-((E)-4-(dimethylamino)but-2-enamido)picolinamide]
Tumor growth vs untreated historical samples (BR5015 xenografts): little inhibitory effect on tumor growth | Response to treatment across eight ovarian PDX models (tumor growth vs historical untreated) [1]: four of the xenografts responded to treatment | Response to treatment (tumor growth) (OV15612 xenograft): responded | mRNA of genes related to homologous recombination deficiency and carboplatin sensitivity, all genes except Rad51 (BRCA1, BRCA2, ATM, ATR, MSH2, MSH6) [2]: downregulated | mRNA expression from genes involved in DNA repair (Rad51, CHEK1, CHEK2) [3]: Downregulation | Induction of apoptosis in vitro (leukemic cells): selectively induce apoptosis in leukemic cells relative to non-malignant cells

Source: patent US20200113902A1, “COMPOSITIONS AND METHODS FOR TREATING CANCERS WITH COVALENT INHIBITORS OF CYCLIN-DEPENDENT KINASE 7 (CDK7)” (Syros Pharmaceuticals, Inc., priority 2017, published 2020)
